Test: xn = mol fraction of the nth substance listed

CS(=O)(=O)[O-].C[N+](C)(CCO)CCO + CCO
viscosity [mPa·s], 101 kPa
Settings | x1 = 0.099 | x1 = 0.2 | x1 = 0.2984 | x1 = 0.4 | x1 = 0.5005 | x1 = 0.6011 | x1 = 0.7008 | x1 = 0.7993 | x1 = 0.8954 | x1 = 1
298.15 K | 3.21 | 8.15 | 18.5 | 39.7 | 80.7 | 176 | 319 | 556 | 950 | 1495
303.15 K | 2.89 | 7.02 | 15.54 | 32.2 | 63.3 | 133.2 | 236 | 399 | 664 | 1021
308.15 K | 2.61 | 6.13 | 13.16 | 26.5 | 50.5 | 92.7 | 178 | 293 | 476 | 716
313.15 K | 2.32 | 5.38 | 11.4 | 22.1 | 41 | 73.2 | 136.8 | 221 | 350 | 513
318.15 K | 2.13 | 4.76 | 9.92 | 18.6 | 33.7 | 58.6 | 106.9 | 169 | 262 | 378
323.15 K | 1.9 | 4.24 | 8.58 | 15.85 | 28 | 47.6 | 76.5 | 132.1 | 201 | 282

OCCO + CCOS(=O)(=O)[O-].CC[n+]1ccn(C)c1
100 kPa, x1 = 1
Settings | viscosity [mPa·s]
298.15 K | 16.8
303.15 K | 13.8

[N-]=C=S.[NH4+] + CCOS(=O)(=O)[O-].CC[n+]1ccn(C)c1
101 kPa
Settings | electrical conductivity [S/m] | viscosity [mPa·s]
298.15 K, x1 = 0.0235 | 0.373 | 103.1
298.15 K, x1 = 0.3025 | 0.285 | –
303.15 K, x1 = 0.565 | 0.375 | 172.5
308.15 K, x1 = 0.3025 | 0.439 | 129.6
308.15 K, x1 = 0.4042 | 0.436 | 140.9
313.15 K, x1 = 0.5997 | 0.59 | –
318.15 K, x1 = 0.5205 | 0.656 | 86.9
318.15 K, x1 = 0.565 | 0.728 | 85.3
323.15 K, x1 = 0.565 | 0.868 | 69.75
333.15 K, x1 = 0.0235 | – | 26.54
333.15 K, x1 = 0.3025 | – | 50.29
333.15 K, x1 = 0.4042 | – | 53.18
333.15 K, x1 = 0.5997 | – | 47.67

O=C([O-])CC(O)(CC(=O)[O-])C(=O)[O-].[K+].[K+].[K+] + CCOS(=O)(=O)[O-].CC[n+]1ccn(C)c1 + O
viscosity [mPa·s], 101.3 kPa
Settings | 293.15 K | 298.15 K | 303.15 K | 308.15 K | 313.15 K
x1 = 0.0001822, x2 = 0.001795 | 1.082 | 0.969 | 0.854 | 0.76 | 0.688
x1 = 0.0001842, x2 = 0.002697 | 1.117 | 0.997 | 0.886 | 0.798 | 0.719
x1 = 0.0001964, x2 = 0 | 1.012 | 0.9 | 0.806 | 0.73 | 0.654
x1 = 0.0002632, x2 = 0.003588 | 1.149 | 1.029 | 0.912 | 0.824 | 0.74
x1 = 0.0005421, x2 = 0 | 1.019 | 0.907 | 0.813 | 0.737 | 0.661
x1 = 0.0005539, x2 = 0.001794 | 1.091 | 0.978 | 0.863 | 0.769 | 0.697
x1 = 0.0005561, x2 = 0.002696 | 1.127 | 1.007 | 0.896 | 0.808 | 0.729
x1 = 0.0005675, x2 = 0.003587 | 1.157 | 1.037 | 0.921 | 0.832 | 0.749
x1 = 0.0008894, x2 = 0 | 1.026 | 0.914 | 0.82 | 0.744 | 0.668
x1 = 0.0009179, x2 = 0.001794 | 1.099 | 0.986 | 0.871 | 0.776 | 0.704
x1 = 0.0009314, x2 = 0.002695 | 1.135 | 1.015 | 0.904 | 0.816 | 0.737
x1 = 0.0009355, x2 = 0.003586 | 1.166 | 1.046 | 0.929 | 0.841 | 0.757
x1 = 0.00126, x2 = 0 | 1.032 | 0.92 | 0.826 | 0.75 | 0.674
x1 = 0.001287, x2 = 0.001793 | 1.106 | 0.993 | 0.878 | 0.783 | 0.712
x1 = 0.001299, x2 = 0.002694 | 1.143 | 1.023 | 0.912 | 0.824 | 0.745
x1 = 0.001316, x2 = 0.003585 | 1.174 | 1.054 | 0.937 | 0.849 | 0.765
x1 = 0.001616, x2 = 0 | 1.038 | 0.926 | 0.832 | 0.756 | 0.68
x1 = 0.001647, x2 = 0.001792 | 1.113 | 1 | 0.884 | 0.79 | 0.719
x1 = 0.001665, x2 = 0.002693 | 1.15 | 1.03 | 0.92 | 0.831 | 0.753
x1 = 0.001686, x2 = 0.003583 | 1.181 | 1.061 | 0.944 | 0.856 | 0.773
x1 = 0.001985, x2 = 0 | 1.044 | 0.932 | 0.838 | 0.762 | 0.686
x1 = 0.002026, x2 = 0.002692 | 1.158 | 1.038 | 0.926 | 0.839 | 0.759
x1 = 0.002032, x2 = 0.001792 | 1.12 | 1.007 | 0.892 | 0.798 | 0.725
x1 = 0.002072, x2 = 0.003582 | 1.19 | 1.07 | 0.954 | 0.865 | 0.78

CCCCn1cc[n+](C)c1C.O=S(=O)([N-]S(=O)(=O)C(F)(F)F)C(F)(F)F + CC[N+](C)(CC)CCOC.O=S(=O)([N-]S(=O)(=O)C(F)(F)F)C(F)(F)F
100 kPa, x2 = 0
Settings | electrical conductivity [S/m]
298.15 K | 0.237
308.15 K | 0.379
323.15 K | 0.665
328.15 K | 0.777

OCCO + CC[n+]1ccn(C)c1.F[B-](F)(F)F
viscosity [mPa·s]
Settings | 293.15 K | 298.15 K | 323.15 K | 333.15 K | 343.15 K
100 kPa, x1 = 1 | 21.4 | 17.4 | 7.12 | – | 4.1
101 kPa, x2 = 0 | – | – | – | 5.19 | –

[N-]=C=S.[NH4+] + CC[n+]1ccn(C)c1.N#C[S-]
100 kPa
Settings | electrical conductivity [S/m] | viscosity [mPa·s]
313.15 K, x1 = 0.039 | 3.12 | 16.11
318.15 K, x1 = 0.039 | – | 14.28
318.15 K, x1 = 0.1395 | 3.28 | 16.71
323.15 K, x1 = 0.1395 | 3.71 | 14.61
328.15 K, x1 = 0.039 | – | 11.19
333.15 K, x1 = 0.099 | – | 10.92
343.15 K, x1 = 0.1395 | – | 9.2
348.15 K, x1 = 0.099 | – | 8.08
353.15 K, x1 = 0.099 | – | 7.28
353.15 K, x1 = 0.1395 | – | 7.48

OCCO + CC[n+]1ccn(C)c1.O=C([O-])C(F)(F)F
100 kPa, x1 = 1
Settings | viscosity [mPa·s]
293.15 K | 20.8
298.15 K | 16.8
303.15 K | 13.8
313.15 K | 9.52

O=S(=O)([N-]S(=O)(=O)C(F)(F)F)C(F)(F)F.[Li+] + CC[n+]1ccn(C)c1.O=S(=O)([N-]S(=O)(=O)C(F)(F)F)C(F)(F)F
101 kPa
Settings | electrical conductivity, x2 = 0.6878 [S/m] | electrical conductivity, x2 = 0.746 [S/m] | electrical conductivity, x2 = 0.7874 [S/m] | electrical conductivity, x2 = 0.8765 [S/m] | electrical conductivity, x2 = 0.9376 [S/m] | viscosity, x2 = 0.8 [mPa·s]
288.15 K | 0.094 | 0.146 | 0.189 | 0.351 | 0.461 | –
298.15 K | 0.175 | 0.253 | 0.315 | 0.539 | 0.686 | 89.9
333.15 K | 0.739 | 0.91 | 1.06 | 1.53 | 1.79 | –
358.15 K | – | – | – | – | – | 13.33

From the CheMixHub ionic liquid set
